In series [1] the test system is Human astrocyte cell line (SVG). In words: VEGF and crystallin immunostaining in cultured astrocytes exposed to 3-nitropropionic acid. Type of series: cell-based. The following applies: 10 μM 3-NP. As to the method: Human astrocyte cell line (SVG) was treated with 10 μM 3-NP, and cells were harvested for immunostaining with antibodies to VEGF and crystallins after 6, 12, and 24 hours. […] Fluorescence with both of the antibodies is increased after 12 hours of exposure to 3-NP in culture. […] Nuclei were counterstained with DAPI.
It has been shown that astrocytes are sensitive to hypoxia, which induces them to release VEGF (Chow et al., 2001; Sandercoe et al., 2003). To determine if astrocytes also express β- and γ-crystallins in response to hypoxia, 3-nitropropionic acid, an irreversible inhibitor of mitochondrial succinate dehydrogenase activity was used (Cavaliere et al., Neurochem Int 38:189-197, 2001). It can be considered a model substance to study hypoxic neuronal damage (Riepe et al., Neurosci Lett 211:9-12, 1996).
The SVG cell line used in this study was derived from human fetal astrocytes transformed with SV40 large T antigen (Major et al., J Biol Chem 278:13512-13519, 1985; Tornatore et al., Cell Transplant 5:145-163, 1996). Cultures of the human fetal astrocyte cell line (SVG) were maintained in Dulbecco's modified Eagle's medium with 2 mM L-glutamine, 10% fetal bovine serum, and streptomycin penicillin-fungizone solutions. Cells grown in 60-mm dishes were treated with 10 μM 3-nitropropionic acid (3NP) for 6, 12, and 24 hours at 37° C. and then fixed with paraformaldehyde (4%) for 15 minutes and blocked with 3% BSA at 4° C. overnight. The fixed cells were processed following standard techniques for immunofluorescence using VEGF and crystallin antibodies as indicated earlier.

Series [2] relates to Human Retinal Endothelial Cells (HREC). Description: Matrigel tube formation in cultured human retinal endothelial cells. Type of series: cell-based. As to conditions: exogenously applied protein, Matrigel pre-coated plates, VEGF omitted from media supplement. As for the experimental part: HREC were cultured in EGM2MV media according to the manufacturer's protocol either in the absence (FIG. 25A), or presence (FIG. 25B) of pre-coated Matrigel matrix (Cambrex). (4× magnification)
FIG. 28 is a graph showing the effect of Exogenous γ-crystallins, VEGF, and PEDF on Tube Length in Cultured Human Retinal Endothelial Cells (HREC): HREC grown on Matrigel-coated tissue culture plates in EGM2MV media with VEGF omitted from the media supplement. Cells were treated with BSA (control), 0.2 μg/ml VEGF, 0.6 μg/ml VEGF, concentrations of […] ranging from 0.5 μg/ml to 1.0 μg/ml, or 0.2 μg/ml PEDF. Average tube length was calculated after measuring all of the tubes formed in three separate optical fields from 7 individual culture dishes.
As reported above, a functionally significant effect of β/γ crystallins on vascular remodeling the effect of β/γ crystallins was established on human umbilical vein endothelial cells (HUVEC) in culture. Because the behavior of vascular endothelial cells varies according to their source and the resident tissue environment, the effect of β/γ crystallins on cultured human retinal endothelial cells (HREC) was subsequently analyzed. […] FIG. 28 quantifies these effects.

Series [3] has as its system HUVEC (Human umbilical vein endothelial cells). In words: Three-dimensional tube formation assay of HUVEC on Matrigel. As to conditions: HUVEC on Matrigel treated with purified proteins (crystallins 0.5 μg/ml), vs controls. Type of series: cell-based. From the text:
In order to better understand the functional role of β/γ-crystallins in vascular remodeling, HUVEC (Human umbilical vein endothelial cells) were established in culture. HUVEC differentiation into tube-like structures in three dimensional Matrigel cultures has been commonly used as a model system to studying angiogenesis (Edelman et al. Exp. Eye Res. 80(2): 249-58, 2005; Xin et al. J. Biol. Chem. 274(13): 9116-21, 1999). After plating HUVEC onto Matrigel, the cells differentiated to form tubes and a capillary-like network at the minimum seeding density of 5×10^3 cells/well (FIGS. 20A-20F). These differentiated cells form tubes and express crystallins (FIGS. 21A and 21B).
The effect of β/γ crystallins and VEGF on HUVEC tube formation and regression was examined. VEGF protein used in this study was purchased from R&D Systems (Minneapolis, Minn.) and the polyclonal antibody was from Santa Cruz Biotechnology (Santa Cruz, Calif.). To prepare the crystallin proteins, lenses dissected from bovine eyes were homogenized in 7 volumes of 0.05M Tris buffer, pH 7.4 containing 0.1M KCl, 10 mM 2-mercaptoethanol and 0.02% NaN3. […] Fractions were collected and peaks analyzed by SDS-PAGE. […]
The cells were exposed to 0.2 μg/ml to 2 μg/ml of crystallin proteins, with a maximum effect at 0.5 μg/ml with negligible cell death as determined by trypan-blue exclusion. […]

The test system of series [4] is Human Retinal Endothelial Cells (HREC). As to conditions: relatively high dose tested (0.2 μg/ml PEDF); cited from earlier work.

Entries after “also recorded” stand apart in the source; their conditions may differ.

For `O=C(O)CC[N+](=O)[O-]` [3-NP, 3-nitropropionic acid], in series [1] (6 hours), the “VEGF expression (immunostaining)” value is reported as “induction; also recorded: distinct cytoplasmic staining”; the “β- and γ-crystallin expression (immunostaining)” value was “induction; also recorded: distinct cytoplasmic staining”. In addition, in series [1] (12 hours), the VEGF antibody fluorescence entry was “increased” and the γ-crystallin antibody fluorescence result is listed as “increased”. Moreover, the cell death result in series [1] (24 hours) is reported as “most of the cells have died”.
For VEGF, the “HREC vessel-like tube formation” value in series [2] was “enhanced”. Further, the “tube length (tube processes)” value in series [3] was “longer tubes”.

B1: PEDF: PEDF added at 0.2 μg/ml to HREC cultures (protein, UniProt P36955 20-418, looked up)
Pigment epithelium-derived …: QNPASPPEEGSPDPDSTGALVEEEDPFFKVPVNKLAAAVSNFGYDLYRVRSSTSPTTNVLLSPLSVATALSALSLGAEQRTESIIHRALYYDLISSPDIHGTYKELLDTVTAPQKNLKSASRIVFEKKLRIKSSFVAPLEKSYGTRPRVLTGNPRLDLQEINNWVQAQMKGKLARSTKEIPDEISILLLGVAHFKGQWVTKFDSRKTSLEDFYLDEERTVRVPMMSDPKAVLRYGLDSDLSCKIAQLPLTGSMSIIFFLPLKVTQNLTLIEESLTSEFIHDIDRELKTVQAVLTVPKLKLSYEGEVTKSLQEMKLQSLFDSPDFSKITGKPIKLTQVEHRAGFEWNEDGAGTTPSPGLQPAHLTFPLDYHLNQPFIFVLRDTDTGALLFIGKILDPRGP
B1: in series [4], the tube formation entry is given as “stimulate tube formation”.

The values are drawn from patent US20100004168A1, “Use of Crystallin For The Modulation of Angiogenesis” (The Johns Hopkins University, priority 2006, published 2010).
